Results reported in patent publication US8435980B2 (AbbVie Inc., priority 2009, dated 2013).

Target: T1, Cdc7 (BEV coexpressed huCDC7/DBF4) (Homo sapiens, UniProt O00311)
T1 construct: made in house; host or cells: BEV (baculovirus expression vector) co-expression; insect cells are implied but no cell line is named
Assay: Cdc7 enzyme inhibition assay ([33P]ATP, biotinylated peptide substrate, FlashPlate)
Type: biochemical
Details: not given
Procedure: Cdc7 (BEV coexpressed huCDC7/DBF4) is prepared internally. Cdc7 assays are conducted as follows with final concentrations as listed. […] Reactions are quenched after 1 hr by the addition of 90 μL stop buffer (50 mM EDTA, 2M NaCl). […] (Ki) for exemplary compounds.

T1 sequence (O00311 whole entry): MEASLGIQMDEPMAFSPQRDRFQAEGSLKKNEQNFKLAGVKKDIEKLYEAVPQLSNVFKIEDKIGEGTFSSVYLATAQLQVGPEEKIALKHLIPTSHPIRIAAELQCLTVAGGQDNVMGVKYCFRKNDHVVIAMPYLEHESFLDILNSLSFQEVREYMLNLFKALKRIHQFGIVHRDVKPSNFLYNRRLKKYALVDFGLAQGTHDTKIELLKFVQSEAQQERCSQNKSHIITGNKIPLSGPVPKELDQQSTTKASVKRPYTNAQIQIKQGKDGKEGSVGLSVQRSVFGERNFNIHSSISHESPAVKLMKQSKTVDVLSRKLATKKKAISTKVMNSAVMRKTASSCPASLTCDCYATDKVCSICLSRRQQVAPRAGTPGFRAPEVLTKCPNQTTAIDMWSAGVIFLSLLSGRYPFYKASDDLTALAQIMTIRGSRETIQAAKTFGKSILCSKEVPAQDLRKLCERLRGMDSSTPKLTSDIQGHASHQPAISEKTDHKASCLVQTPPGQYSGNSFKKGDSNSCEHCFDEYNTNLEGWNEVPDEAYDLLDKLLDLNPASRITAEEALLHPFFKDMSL
T1 sequence (Q9UBU7 whole entry partner): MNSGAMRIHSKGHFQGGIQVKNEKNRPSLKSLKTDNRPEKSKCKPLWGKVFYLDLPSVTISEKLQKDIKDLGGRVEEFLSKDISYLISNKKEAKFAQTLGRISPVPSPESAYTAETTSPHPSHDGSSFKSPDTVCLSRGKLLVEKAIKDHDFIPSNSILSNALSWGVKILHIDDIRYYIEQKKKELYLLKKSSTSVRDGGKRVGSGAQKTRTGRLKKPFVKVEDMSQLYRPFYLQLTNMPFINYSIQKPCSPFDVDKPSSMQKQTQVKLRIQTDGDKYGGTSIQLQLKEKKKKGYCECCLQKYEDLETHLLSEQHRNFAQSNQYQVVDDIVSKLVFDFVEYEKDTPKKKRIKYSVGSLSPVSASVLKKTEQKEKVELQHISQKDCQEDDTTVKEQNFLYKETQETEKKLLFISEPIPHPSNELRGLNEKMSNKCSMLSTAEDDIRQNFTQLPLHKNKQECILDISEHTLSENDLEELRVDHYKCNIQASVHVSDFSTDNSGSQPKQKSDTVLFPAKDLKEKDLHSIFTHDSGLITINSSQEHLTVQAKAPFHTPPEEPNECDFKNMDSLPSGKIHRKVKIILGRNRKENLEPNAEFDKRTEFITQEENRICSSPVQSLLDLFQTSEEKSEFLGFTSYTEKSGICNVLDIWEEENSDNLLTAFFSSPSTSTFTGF

Structure (SMILES)	Ki [nM]
Clc1cc(-c2c[nH]c3ncccc23)cc(NCc2ccccc2)n1 [Example 2, N-Benzyl-6-chloro-4-(1H-pyrrolo[2,3-b]pyridin-3-yl)pyridin-2-amine]	< 10
C=CCNc1cc(-c2c[nH]c3ncccc23)cc(Cl)n1 [Example 3, N-Allyl-6-chloro-4-(1H-pyrrolo[2,3-b]pyridin-3-yl)pyridin-2-amine]	< 10
Clc1cc(-c2c[nH]c3ncccc23)cc(N2CCCCC2)n1 [Example 4, 3-(2-chloro-6-piperidin-1-ylpyridin-4-yl)-1H-pyrrolo[2,3-b]pyridine]	10 to 100
CN(Cc1ccccc1)c1cc(-c2c[nH]c3ncccc23)cc(Cl)n1 [Example 5, N-benzyl-6-chloro-N-methyl-4-(1H-pyrrolo[2,3-b]pyridin-3-yl)pyridin-2-amine]	< 10
FC1(F)CN(c2cc(-c3c[nH]c4ncccc34)cc(Cl)n2)C1 [Example 6, 3-[2-chloro-6-(3,3-difluoroazetidin-1-yl)pyridin-4-yl]-1-1H-pyrrolo[2,3-b]pyridine]	10 to 100
Cc1cccc(-c2cc(-c3c[nH]c4ncccc34)cc(Cl)n2)c1C [Example 7, 3-[2-chloro-6-(2,3-dimethylphenyl)pyridin-4-yl]-1H-pyrrolo[2,3-b]pyridine]	10 to 100
COCCNc1cc(-c2c[nH]c3ncccc23)cc(Cl)n1 [Example 10, 6-chloro-N-(2-methoxyethyl)-4-(1H-pyrrolo[2,3-b]pyridin-3-yl)pyridin-2-amine]	< 10
OCCNc1cc(-c2c[nH]c3ncccc23)cc(Cl)n1 [Example 11, 2-{[6-chloro-4-(1H-pyrrolo[2,3-b]pyridin-3-yl)pyridin-2-yl]amino}ethanol]	< 10
COCCN(CCOC)c1cc(-c2c[nH]c3ncccc23)cc(Cl)n1 [Example 12, 6-chloro-N,N-bis(2-methoxyethyl)-4-(1H-pyrrolo[2,3-b]pyridin-3-yl)pyridin-2-amine]	10 to 100
Clc1cc(-c2c[nH]c3ncccc23)cc(NCC2CCCO2)n1 (stereo not drawn) [Example 13, 6-chloro-4-(1H-pyrrolo[2,3-b]pyridin-3-yl)-N-(tetrahydrofuran-2-ylmethyl)pyridin-2-amine]	< 10
CC(C)(O)CNc1cc(-c2c[nH]c3ncccc23)cc(Cl)n1 [Example 18, 1-{[6-chloro-4-(1H-pyrrolo[2,3-b]pyridin-3-yl)pyridin-2-yl]amino}-2-methylpropan-2-ol]	< 10
OCCCCNc1cc(-c2c[nH]c3ncccc23)cc(Cl)n1 [Example 19, 4-{[6-chloro-4-(1H-pyrrolo[2,3-b]pyridin-3-yl)pyridin-2-yl]amino}butan-1-ol]	< 10
CC(C)(CO)CCCNc1cc(-c2c[nH]c3ncccc23)cc(Cl)n1 [Example 20]	< 10
CS(=O)(=O)NC1CCC(Nc2cc(-c3c[nH]c4ncccc34)cc(Cl)n2)CC1 (stereo not drawn) [Example 21, N-(4-{[6-chloro-4-(1H-pyrrolo[2,3-b]pyridin-3-yl)pyridin-2-yl]amino}cyclohexyl)methanesulfonamide]	< 10
CC(=O)NC1CCC(Nc2cc(-c3c[nH]c4ncccc34)cc(Cl)n2)CC1 (stereo not drawn) [Example 22, N-(4-{[6-chloro-4-(1H-pyrrolo[2,3-b]pyridin-3-yl)pyridin-2-yl]-amino}cyclohexyl)acetamide]	< 10
CS(=O)(=O)NC1CCCC(Nc2cc(-c3c[nH]c4ncccc34)cc(Cl)n2)C1 (stereo not drawn) [Example 24, N-(3-{[6-chloro-4-(1H-pyrrolo[2,3-b]pyridin-3-yl)pyridin-2-yl]-amino}cyclohexyl)methanesulfonamide]	< 10
Clc1cc(-c2c[nH]c3ncccc23)cc(NCC2CCOCC2)n1 [Example 25, 6-chloro-4-(1H-pyrrolo[2,3-b]pyridin-3-yl)-N-(tetrahydro-2H-pyran-4-ylmethyl)pyridin-2-amine]	< 10
Clc1cc(-c2c[nH]c3ncccc23)cc(NCc2cccnc2)n1 [Example 27, 6-chloro-N-(pyridin-3-ylmethyl)-4-(1H-pyrrolo[2,3-b]pyridin-3-yl)pyridin-2-amine]	< 10
Clc1cc(-c2c[nH]c3ncccc23)cc(NCC2CCCOC2)n1 (stereo not drawn) [Example 28, 6-chloro-4-(1H-pyrrolo[2,3-b]pyridin-3-yl)-N-(tetrahydro-2H-pyran-3-ylmethyl)pyridin-2-amine]	10 to 100
Clc1cc(-c2c[nH]c3ncccc23)cc(NCC2CCNC2)n1 (stereo not drawn) [Example 29, 6-chloro-N-(pyrrolidin-3-ylmethyl)-4-(1H-pyrrolo[2,3-b]pyridin-3-yl)pyridin-2-amine]	< 10
Cc1cccc(CNc2cc(-c3c[nH]c4ncccc34)cc(Cl)n2)c1C [Example 30, 6-chloro-N-(2,3-dimethylbenzyl)-4-(1H-pyrrolo[2,3-b]pyridin-3-yl)pyridin-2-amine]	10 to 100
Clc1cc(-c2c[nH]c3ncccc23)cc(NCc2ccncc2)n1 [Example 31, 6-chloro-N-(pyridin-4-ylmethyl)-4-(1H-pyrrolo[2,3-b]pyridin-3-yl)pyridin-2-amine]	10 to 100
Fc1cc(Cl)ccc1CNc1cc(-c2c[nH]c3ncccc23)cc(Cl)n1 [Example 36, 6-chloro-N-(4-chloro-2-fluorobenzyl)-4-(1H-pyrrolo[2,3-b]pyridin-3-yl)pyridin-2-amine]	10 to 100
Clc1cc(-c2c[nH]c3ncccc23)cc(NCc2cccnc2Oc2cccnc2)n1 [Example 37, 6-chloro-N-{[2-(pyridin-3-yloxy)pyridin-3-yl]methyl}-4-(1H-pyrrolo[2,3-b]pyridin-3-yl)pyridin-2-amine]	10 to 100

Next, values leading:

Ki [nM]	Structure (SMILES)
< 10	Clc1cc(-c2c[nH]c3ncccc23)cc(NC2CCCCC2)n1 [Example 1, 6-Chloro-N-cyclohexyl-4-(1H-pyrrolo[2,3-b]pyridin-3-yl)pyridin-2-amine]
< 10	Clc1cc(-c2c[nH]c3ncccc23)cc(NC2CCOCC2)n1 [Example 8, 6-chloro-4-(1H-pyrrolo[2,3-b]pyridin-3-yl)-N-tetrahydro-2H-pyran-4-ylpyridin-2-amine]
< 10	OC1CCCCC1Nc1cc(-c2c[nH]c3ncccc23)cc(Cl)n1 (stereo not drawn) [Example 9, 2-{[6-chloro-4-(1H-pyrrolo[2,3-b]pyridin-3-yl)pyridin-2-yl]amino}cyclohexanol]
< 10	O[C@H]1CC[C@H](Nc2cc(-c3c[nH]c4ncccc34)cc(Cl)n2)CC1 [Example 14, Trans 4-{[6-chloro-4-(1H-pyrrolo[2,3-b]pyridin-3-yl)pyridin-2-yl]amino}cyclohexanol]
< 10	NC1CCC(Nc2cc(-c3c[nH]c4ncccc34)cc(Cl)n2)CC1 (stereo not drawn) [Example 15, N-[6-chloro-4-(1H-pyrrolo[2,3-b]pyridin-3-yl)pyridin-2-yl]cyclohexane-1,4-diamine]
10 to 100	COC1CCCCC1Nc1cc(-c2c[nH]c3ncccc23)cc(Cl)n1 (stereo not drawn) [Example 16, 6-chloro-N-(2-methoxycyclohexyl)-4-(1H-pyrrolo[2,3-b]pyridin-3-yl)pyridin-2-amine]
< 10	NC1CCCCC1Nc1cc(-c2c[nH]c3ncccc23)cc(Cl)n1 (stereo not drawn) [Example 17, N-[6-chloro-4-(1H-pyrrolo[2,3-b]pyridin-3-yl)pyridin-2-yl]cyclohexane-1,2-diamine]
< 10	NC1CCCC(Nc2cc(-c3c[nH]c4ncccc34)cc(Cl)n2)C1 (stereo not drawn) [Example 23, N-[6-chloro-4-(1H-pyrrolo[2,3-b]pyridin-3-yl)pyridin-2-yl]cyclohexane-1,3-diamine]
< 10	OC1CCCC(Nc2cc(-c3c[nH]c4ncccc34)cc(Cl)n2)C1 (stereo not drawn) [Example 26, 3-{[6-chloro-4-(1H-pyrrolo[2,3-b]pyridin-3-yl)pyridin-2-yl]amino}cyclohexanol]
10 to 100	Clc1cc(-c2c[nH]c3ncccc23)cc(NCC2CCCCO2)n1 (stereo not drawn) [Example 32, 6-chloro-4-(1H-pyrrolo[2,3-b]pyridin-3-yl)-N-(tetrahydro-2H-pyran-2-ylmethyl)pyridin-2-amine]
10 to 100	Clc1cc(-c2c[nH]c3ncccc23)cc(NC2CCNCC2)n1 [Example 33, 6-chloro-N-piperidin-4-yl-4-(1H-pyrrolo[2,3-b]pyridin-3-yl)pyridin-2-amine]
10 to 100	COC1CCC(Nc2cc(-c3c[nH]c4ncccc34)cc(Cl)n2)CC1 (stereo not drawn) [Example 34, 6-chloro-N-(4-methoxycyclohexyl)-4-(1H-pyrrolo[2,3-b]pyridin-3-yl)pyridin-2-amine]
10 to 100	CC(=O)NC1CCCC(Nc2cc(-c3c[nH]c4ncccc34)cc(Cl)n2)C1 (stereo not drawn) [Example 35, N-(3-{[6-chloro-4-(1H-pyrrolo[2,3-b]pyridin-3-yl)pyridin-2-yl]amino}cyclohexyl)acetamide]
10 to 100	Clc1cc(-c2c[nH]c3ncccc23)cc(NCC2CCCNC2)n1 (stereo not drawn) [Example 38, 6-chloro-N-(piperidin-3-ylmethyl)-4-(1H-pyrrolo[2,3-b]pyridin-3-yl)pyridin-2-amine]

Same assay, conditions: Table 2; Comparative Example lacking the chloro substituent versus the chloro Example

Structure (SMILES)	Ki ratio comparisons (Ki Comparative Example/Ki Example)
N#Cc1cc(-c2c[nH]c3ncccc23)cc(N[C@H]2CC[C@H](O)CC2)n1 [Comparative Example 10, 6-[(trans-4-hydroxycyclohexyl)amino]-4-(1H-pyrrolo[2,3-b]pyridin-3-yl)pyridine-2-carbonitrile, reference compound]	10
NC(=O)c1cc(-c2c[nH]c3ncccc23)cc(N[C@H]2CC[C@H](O)CC2)n1 [Comparative Example 11, 6-[(trans-4-hydroxycyclohexyl)amino]-4-(1H-pyrrolo[2,3-b]pyridin-3-yl)pyridine-2-carboxamide, reference compound]	134
c1cnc2[nH]cc(-c3ccnc(NC4CCCCC4)n3)c2c1 [Comparative Example 12, N-cyclohexyl-4-(1H-pyrrolo[2,3-b]pyridin-3-yl)pyrimidin-2-amine, reference compound]	3
N[C@H]1CC[C@H](Nc2nccc(-c3c[nH]c4ncccc34)n2)CC1 [Comparative Example 13, Trans-N-[4-(1H-pyrrolo[2,3-b]pyridin-3-yl)pyrimidin-2-yl]cyclohexane-1,4-diamine, reference compound]	12
